Assay results reported in patent US8362000B2, “Azetidinyl diamides as monoacylglycerol lipase inhibitors” (Janssen Pharmaceutica NV, priority 2009, dated 2013).
Changes are numbered by the printed parent chain. Where two headings read alike, the source gives them in different places.

Key:
mutant MGL = biological target: T1, mutant MGL (Homo sapiens, UniProt Q99685, L169S/L176S); assay: MGL ThermoFluor assay - mutant; format: binding
T1 sequence (Q99685 1-303 L169S/L176S): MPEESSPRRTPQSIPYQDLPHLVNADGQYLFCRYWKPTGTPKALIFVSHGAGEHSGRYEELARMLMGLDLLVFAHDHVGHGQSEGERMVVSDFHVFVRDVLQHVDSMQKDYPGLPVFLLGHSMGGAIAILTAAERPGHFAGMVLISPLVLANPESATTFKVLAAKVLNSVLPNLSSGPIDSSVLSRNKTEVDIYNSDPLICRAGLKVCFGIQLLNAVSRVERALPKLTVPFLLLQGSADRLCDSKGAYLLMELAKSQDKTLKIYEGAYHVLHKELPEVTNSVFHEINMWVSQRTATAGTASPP

[1] = biological target: T2, purified wild type MGL (wt-MGLL 6H-11-313) (Homo sapiens, UniProt Q99685)
T2 sequence (Q99685 1-303): T1 sequence (Q99685 1-303 L169S/L176S) with S169L, S176L

[2] = ThermoFluor concentration-response, read-out: MGL mutant ThermoFluor Kd
[3] = compound concentration measured by qNMR, read-out: MGL mutant ThermoFluor qKd (using qNMR conc.)
[4] = ThermoFluor, compound concentration measured by qNMR, read-out: MGL mutant ThermoFluor qKd (using qNMR conc.)
[5] = ThermoFluor, compound concentration measured by qNMR, read-out: MGL mutant ThermoFluor qKd (μM) (using qNMR conc.)
[6] = ThermoFluor thermal stability binding assay, read-out: MGL mutant ThermoFluor Kd

Row | Structure (SMILES) | Kd (mutant MGL; [2]) [µM] | IC50 [1] [nM] | further results
1 | Cc1nc(-c2ccccc2F)sc1C(=O)N1CC(N2CCN(C(=O)c3cscn3)CC2)C1 [Cpd 1287] | 0.495 | 2450 | –
2 | O=C(c1ccc2c(c1)C(Cc1cccc(C(F)(F)F)c1)(Cc1cccc(C(F)(F)F)c1)C(=O)N2Cc1cccc(C(F)(F)F)c1)N1CC(N2CCN(C(=O)c3nccs3)CC2)C1 [Cpd 1430, 5-({3-[4-(1,3-Thiazol-2-ylcarbonyl)piperazin-1-yl]azetidin-1-yl}carbonyl)-1,3,3-tris[3-(trifluoromethyl)benzyl]-1,3-dihydro-2H-indol-2-one] | 50 | 9890 | –
3 | O=C(c1cscn1)N1CCN(C2CN(C(=O)c3cccc4[nH]c(-c5ccc(Cl)cc5)nc34)C2)CC1 [Cpd 1290] | – | 2700 | Kd (mutant MGL; [6]): 0.643 µM
4 | O=C(c1cn[nH]c1)N1CCN(C2CN(C(=O)c3ccc(-c4ccccc4)cc3)C2)CC1 [Cpd 1310] | – | 11600 | Kd (mutant MGL; [6]): 8.35 µM
5 | O=C(c1ccccc1)N1CCN(C2CN(C(=O)c3cccc4[nH]c(-c5ccccc5Cl)nc34)C2)CC1 [Cpd 608] | – | 4170 | Kd (mutant MGL; [6]): 1.67 µM
6 | Cc1cn(-c2cccc(F)c2)c2ccc(C(=O)N3CC(N4CCN(C(=O)c5ccccc5)CC4)C3)cc12 [Cpd 583] | – | 104 | Kd (mutant MGL; [5]): 0.051 µM
7 | O=C(c1ccc2c(ccn2-c2ccc(F)cc2)c1)N1CC(N2CCN(C(=O)c3cocn3)CC2)C1 [Cpd 1428] | – | 14 | Kd (mutant MGL; [5]): 0.018 µM
8 | O=C(c1ccc2c(c1)[nH]c(=O)n2-c1ccc(F)c(F)c1)N1CC(N2CCN(C(=O)c3cscn3)CC2)C1 [Cpd 941] | 0.389 | 1370 | –
9 | O=C(c1ccc(-c2ccccc2)cc1)N1CC(N2CCN(C(=O)c3c[nH]c4ccccc34)CC2)C1 [Cpd 1308] | – | 9280 | Kd (mutant MGL; [6]): 2.06 µM
10 | Cc1c(C(=O)N2CC(N3CCN(C(=O)c4cscn4)CC3)C2)sc2nc(C(F)(F)F)ccc12 [Cpd 749] | – | 387 | Kd (mutant MGL; [5]): 0.036 µM
11 | O=C(c1cccc(-c2ccc(C(F)(F)F)cc2)c1)N1CC(N2CCN(C(=O)c3cscn3)CC2)C1 [Cpd 1278] | 5.19 | 1860 | –
12 | O=C(c1ccc(-c2ccccc2)cc1)N1CCN(C2CN(C(=O)c3csnn3)C2)CC1 [Cpd 1276, 1-(Biphenyl-4-ylcarbonyl)-4-[1-(1,2,3-thiadiazol-4-ylcarbonyl)azetidin-3-yl]piperazine] | 0.807 | 1760 | –
13 | O=C(c1cscn1)N1CCN(C2CN(C(=O)c3cc4ccc(C(F)(F)F)nc4[nH]3)C2)CC1 [Cpd 865] | – | 10300 | Kd (mutant MGL; [4]): 2.5 µM
14 | Cc1cc(-n2ccc3cc(C(=O)N4CC(N5CCN(C(=O)c6ccccc6)CC5)C4)ccc32)ccc1C#N [Cpd 566, 2-Methyl-4-[5-({3-[4-(phenylcarbonyl)piperazin-1-yl]azetidin-1-yl}carbonyl)-1H-indol-1-yl]benzonitrile] | – | 14 | Kd (mutant MGL; [5]): 0.031 µM
15 | O=C(c1ccc[nH]1)N1CCN(C2CN(C(=O)c3[nH]c4nc(C(F)(F)F)ccc4c3Br)C2)CC1 [Cpd 739] | – | 290 | Kd (mutant MGL; [4]): 0.265 µM
16 | O=C(c1cc(F)cc(-c2ccccc2)c1)N1CC(N2CCN(C(=O)c3cscn3)CC2)C1 [Cpd 1273] | 1.83 | 1610 | –
17 | Cc1c(C(=O)N2CCN(C3CN(C(=O)c4cc[nH]c4)C3)CC2)sc2cc(C(F)(F)F)ccc12 [Cpd 748] | 0.04 | 384 | –
18 | CC(C)n1c(C(F)(F)F)nc2cc(C(=O)N3CC(N4CCN(C(=O)c5cscn5)CC4)C3)ccc21 [Cpd 831] | 0.27 | 4100 | –
19 | O=C(c1cscn1)N1CCN(C2CN(C(=O)c3cc4cc(Cl)ccc4o3)C2)CC1 [Cpd 1444] | – | > 16700 | Kd (mutant MGL; [6]): > 31 µM
20 | Cc1ccc2sc(C(=O)N3CC(N4CCN(C(=O)c5cscn5)CC4)C3)c(C(F)(F)F)c2c1 [Cpd 737, 1-(1-{[5-Methyl-3-(trifluoromethyl)-1-benzothiophen-2-yl]carbonyl}azetidin-3-yl)-4-(1,3-thiazol-4-ylcarbonyl)piperazine] | 0.031 | 285 | –
21 | O=C(c1ccc[nH]1)N1CCN(C2CN(C(=O)c3cc4ccc(C(F)(F)F)nc4[nH]3)C2)CC1 [Cpd 1447] | – | > 16700 | Kd (mutant MGL; [5]): 3.33 µM

Further lines, with some results ahead:

Row | Kd (mutant MGL; [2]) [µM] | IC50 [1] [nM] | Structure (SMILES) | further results
22 | – | < 5 | O=C(c1ccc2c(cnn2Cc2cccc(C(F)(F)F)c2)c1)N1CC(N2CCN(C(=O)c3nccs3)CC2)C1 [Cpd 1038, 5-({3-[4-(1,3-Thiazol-2-ylcarbonyl)piperazin-1-yl]azetidin-1-yl}carbonyl)-1-[3-(trifluoromethyl)benzyl]-1H-indazole] | Kd (mutant MGL; [3]): 0.002 µM
23 | – | 18 | Cc1nn(Cc2ccc(Cl)cc2)c2sc(C(=O)N3CC(N4CCN(C(=O)c5nccs5)CC4)C3)cc12 [Cpd 1053] | Kd (mutant MGL; [4]): 0.247 µM
24 | 2.7 | 7010 | COc1ccc(C(C)(C)C)cc1C(=O)N1CC(N2CCN(C(=O)c3nccs3)CC2)C1 [Cpd 849] | –
25 | – | 166 | O=C(c1cc2ccc(-c3ccc(F)cc3)cc2[nH]1)N1CC(N2CCN(C(=O)c3nccs3)CC2)C1 [Cpd 1204] | Kd (mutant MGL; [5]): 0.249 µM
26 | – | < 5 | O=C(c1ccc(-n2cc(-c3ccc(Cl)cc3)cn2)cc1)N1CC(N2CCN(C(=O)c3nccs3)CC2)C1 [Cpd 1334] | Kd (mutant MGL; [5]): 0.08 µM
27 | – | 718 | NC(=O)c1ccc(Cn2ncc3cc(C(=O)N4CC(N5CCN(C(=O)c6nccs6)CC5)C4)ccc32)cc1 [Cpd 1044, 4-{[5-({3-[4-(1,3-Thiazol-2-ylcarbonyl)piperazin-1-yl]azetidin-1-yl]carbonyl)-1H-indazol-1-yl}methyl}benzamide] | Kd (mutant MGL; [3]): 0.945 µM
28 | – | 373 | O=C(c1nccs1)N1CC(N2CCN(C(=O)c3[nH]c4nc(C(F)(F)F)ccc4c3Br)CC2)C1 [Cpd 746] | Kd (mutant MGL; [4]): 0.263 µM
29 | – | 16 | Cn1cc(Cc2ccc(F)cc2)c2ccc(C(=O)N3CC(N4CCN(C(=O)c5nccs5)CC4)C3)cc21 [Cpd 1026] | Kd (mutant MGL; [3]): 0.001 µM
30 | – | 123 | O=C(c1ccc2c(=O)c3ccccc3oc2c1)N1CC(N2CCN(C(=O)c3nccs3)CC2)C1 [Cpd 710] | Kd (mutant MGL; [4]): 0.197 µM
31 | 0.014 | 179 | O=C(c1ccc2c(c1)ncn2-c1ccccc1)N1CC(N2CCN(C(=O)c3nccs3)CC2)C1 [Cpd 1207] | –
32 | – | 21 | N#Cc1ccc(Cn2ncc3cc(C(=O)N4CC(N5CCN(C(=O)c6nccs6)CC5)C4)ccc32)cc1 [Cpd 1045, 4-{[5-({3-[4-(1,3-Thiazol-2-ylcarbonyl)piperazin-1-yl]azetidin-1-yl]carbonyl)-1H-indazol-1-yl}methyl}benzonitrile] | Kd (mutant MGL; [3]): 0.19 µM
33 | – | 5 | O=C(c1ccc2nn(Cc3cccc(C(F)(F)F)c3)cc2c1)N1CC(N2CCN(C(=O)c3nccs3)CC2)C1 [Cpd 1039, 5-({3-[4-(1,3-Thiazol-2-ylcarbonyl)piperazin-1-yl]azetidin-1-yl}carbonyl)-2-[3-(trifluoromethyl)benzyl]-2H-indazole] | Kd (mutant MGL; [3]): 0.007 µM
34 | – | 168 | Cc1c(C(=O)N2CC(N3CCN(C(=O)c4nccs4)CC3)C2)[nH]c2ccc(-c3ccnn3C)cc12 [Cpd 1205] | Kd (mutant MGL; [5]): 0.008 µM
35 | – | 579 | O=C(c1ccc2c(c1)ncn2C1CCC(F)(F)CC1)N1CC(N2CCN(C(=O)c3nccs3)CC2)C1 [Cpd 759] | Kd (mutant MGL; [3]): 0.037 µM
36 | – | 3900 | O=C(c1ccc2c(c1)CCN2)N1CC(N2CCN(C(=O)c3nccs3)CC2)C1 [Cpd 829, 5-({3-[4-(1,3-Thiazol-2-ylcarbonyl)piperazin-1-yl]azetidin-1-yl}carbonyl)-2,3-dihydro-1H-indole] | Kd (mutant MGL; [6]): 0.5 µM
37 | 0.16 | 268 | O=C(c1ccc2[nH]c(C3CCCCC3)nc2c1)N1CC(N2CCN(C(=O)c3nccs3)CC2)C1 [Cpd 735] | –
38 | – | > 16700 | O=C(c1ccccc1)N1CCc2cccc(C(=O)N3CC(N4CCN(C(=O)c5nccs5)CC4)C3)c2C1 [Cpd 1437] | Kd (mutant MGL; [6]): 33.3 µM
39 | 0.833 | 6900 | O=C(c1ccc2nc(C(F)(F)F)cc(Cl)c2c1)N1CC(N2CCN(C(=O)c3cscn3)CC2)C1 [Cpd 848] | –
40 | – | < 5 | O=C(c1ccc2c(cnn2-c2cccc(C(F)(F)F)c2)c1)N1CC(N2CCN(C(=O)c3nccs3)CC2)C1 [Cpd 1419] | Kd (mutant MGL; [6]): 0.004 µM
41 | – | > 16700 | O=C(CCCc1ccccc1)N1CC(N2CCN(C(=O)c3nccs3)CC2)C1 [Cpd 1434] | Kd (mutant MGL; [6]): 53.8 µM
42 | – | 1450 | Cc1nc2c(C)ccc(Cl)c2cc1C(=O)N1CC(N2CCN(C(=O)c3nccs3)CC2)C1 [Cpd 791] | Kd (mutant MGL; [4]): 0.402 µM
43 | 1.1 | 1500 | O=C(c1cnc(NCc2ccccc2)s1)N1CC(N2CCN(C(=O)c3nccs3)CC2)C1 [Cpd 795] | –
44 | – | < 5 | O=C(c1ccc(-c2cccc(C(F)(F)F)c2)cc1)N1CC(N2CCN(C(=O)c3nccs3)CC2)C1 [Cpd 237, 1-(1,3-Thiazol-2-ylcarbonyl)-4-(1-{[3′-(trifluoromethyl)biphenyl-4-yl]carbonyl}azetidin-3-yl)piperazine] | Kd (mutant MGL; [6]): 0.001 µM
45 | – | 2050 | O=C(c1cc(Br)cs1)N1CC(N2CCN(C(=O)c3nccs3)CC2)C1 [Cpd 806] | Kd (mutant MGL; [5]): 0.989 µM
